Measurements reported in patent US20130288978A1, “DERMATOPONTIN-ACTIVATING PEPTIDES AND COSMETIC COMPOSITIONS INCLUDING SAME” (ISP INVESTMENTS INC., priority 2010, published 2013).
“Also recorded” adds a separate entry of the source. Ends that are not written are not given here.

Experiments:
dermatopontin [1] = test: Dermatopontin immunofluorescence labeling in normal human fibroblast cultures; type: cell-based; details: normal human fibroblasts, peptide 10^−6 M once daily, 24 or 48 hours, vs control conditions
Experimental: (§1) The objective of this study is to determine the influence of the SEQ ID No. 5 peptide and of the SEQ ID No. 9 peptide on the expression of dermatopontin in fibroblasts. For this, specific immunofluorescence labelings were performed on normal human fibroblast cultures and on skin kept in culture ex vivo.
Normal human fibroblasts are cultivated for 24 or 48 hours and treated once daily with a 10^−6M solution of peptide SEQ ID No. 5 or of peptide SEQ ID No. 9. The cells are then washed and fixed with 3.7% formaldehyde for 10 minutes at ambient temperature.
(§2) The fixed cells or the sections are incubated in the presence of a specific rabbit dermatopontin polyclonal antibody (Proteintech group, Ref: 10537-1-AP), then a secondary antibody, coupled to a fluorescent marker. After mounting in an ad hoc medium, the cells are then examined with an Epi-fluorescence microscope (Nikon Eclipse E600 microscope).

dermatopontin [2] = test: Dermatopontin immunofluorescence labeling in human skin kept in culture ex vivo; type: cell-based; details: 10^−6 M solution applied topically, 24 or 48 hours
Experimental: as §1
The human skin samples are placed in culture at the air/liquid interface. A 10^−6M solution of peptide SEQ ID No. 5 or of peptide SEQ ID No. 9 is applied topically, then the samples are incubated for 24 hours or 48 hours. These skin samples are then fixed with formaldehyde then embedded in paraffin or fixed with OCT, by freezing at −20° C. Sections of 3 to 4 μm are then produced (6 μm for the cold sections). The immunolabeling of the samples embedded in paraffin is performed after unmasking specific sites. The immunolabeling of samples embedded in OCT is performed after fixation at 37° C. and with cold acetone.
as §2

NHEK = test: Ultrastructure (transmission electron microscopy) of keratinocytes in culture; type: cell-based, human; details: 10^−6 M, 48 hours, vs untreated control
Experimental: (§3) The objective of this study is to observe the subcellular structures of keratinocytes and fibroblasts treated by the SEQ ID No. 5 peptide at 10^−6 M.
(§4) NHEK or fibroblasts are cultivated in a dish or in a Transwell system, or skins cultivated ex vivo are treated with a 10^−6 M solution of SEQ ID No. 5 peptide for 48 hours (the medium is changed every 24 hours). The skin cells or samples are washed with PBS, then are fixed by Karnosky hypertonic fixation (4% paraformaldehyde, 5% glutaraldehyde in a 0.08M phosphate buffer), 1 hour at ambient temperature, then 24 hours at 4° C. The cells are detached from the substrate by scraping, centrifuged for 5 minutes at 1000 rpm at 4° C. The supernatant is removed and a 0.1 M sodium cacodylate buffer is deposited on the pellet. The cells are mixed with 2% agar then post-fixed by osmium tetroxide for 1 hour. The specimens are then dehydrated by successive passages in an alcohol series (50 to 100%). The skin cells or samples are then coated with a resin. The polymerization is performed for around 12 hours at 60° C. Semi-fine sections of 0.5 μm are performed with the ultra-microtome. The sections are deposited on a subbed slide under heat then stained with toluidine blue. The slides are then dehydrated again and mounted in a suitable medium. […]

fibroblasts = test: Ultrastructure (transmission electron microscopy) of fibroblasts in culture; type: cell-based; details: 10^−6 M, 48 hours
Experimental: as §3, §4

skins cultivated ex vivo = test: Ultrastructure (transmission electron microscopy) of skins cultivated ex vivo; type: cell-based; details: ex vivo skin cultures, 10^−6 M, 48 hours
Experimental: as §3, §4

fibronectin [3] = test: Fibronectin immunofluorescence labeling in human dermal fibroblast cultures; type: cell-based; details: human dermal fibroblasts, 10^−6 M once daily, vs control cells
Experimental: (§5) The objective of this study is to determine the influence of the SEQ ID No. 5 peptide on the expression of fibronectin, a protein of the extracellular matrix synthesized by the fibroblasts. For this, specific immunofluorescence labelings were performed on fibroblast cultures and on ex vivo skin cultures.
Human dermal fibroblasts in culture are treated once daily with a 10^−6 solution M of SEQ ID No. 5 peptide (the medium containing the active agent is changed every 24 hours). The cells are then washed and fixed with 3.7% formaldehyde for 10 minutes at ambient temperature.
(§6) The fixed cells or the sections are incubated in the presence of a specific rabbit fibronectin polyclonal antibody (Sigma, Ref: F-3648), then a secondary antibody, coupled with a fluorescent marker. The cells are then examined with the Epi-fluorescence microscope (Nikon Eclipse E600 microscope).

fibronectin [4] = test: Fibronectin immunofluorescence labeling in ex vivo human skin cultures; type: cell-based; details: 10^−6 M applied topically, 24 or 48 hours
Experimental: as §5
The human skin samples are placed in culture at the air/liquid interface. A 10^−6 M solution SEQ ID No. 5 peptide or SEQ ID No. 9 peptide is to be applied topically, then the samples are incubated for 24 or 48 hours. These skin samples are then fixed with formaldehyde, then embedded in paraffin or fixed with OCT by freezing at −20° C. Sections of 3 to 4 μm are then produced (6 μm for cold sections). The immunolabeling of the samples embedded in paraffin is performed after unmasking specific sites. The immunolabeling of the samples embedded in OCT is performed after fixation at 37° C. and with cold acetone.
as §6

collagen I [5] = test: Collagen I immunofluorescence labeling in normal human fibroblast cultures; type: cell-based; details: 10^−6 M once per day, 24 or 48 hours, vs control conditions
Experimental: (§7) The objective of this study is to determine the influence of the SEQ ID No. 5 peptide on the expression of molecules of the dermal extracellular matrix. For this, the expression of collagens I and III in human fibroblasts obtained from the dermis was studied.
(§8) Normal human fibroblasts are cultivated for 24 or 48 hours and treated once per day with a 10^−6M solution of SEQ ID No. 5 peptide or SEQ ID No. 9 peptide. The cells are then washed and fixed with formaldehyde at 3.7% for 10 minutes at ambient temperature.
(§9) The fixed cells or sections are incubated in the presence of a specific rabbit collagen I polyclonal antibody (Rockland, Ref: 600-401-103) or a specific rabbit collagen III polyclonal antibody (Rockland, Ref: 600-401-105), then a secondary antibody coupled to a fluorescent marker. After mounting in an ad hoc medium, the cells are then examined with the Epi-fluorescence microscope (Nikon Eclipse E600 microscope).

collagen I [6] = test: Collagen I immunofluorescence labeling in ex vivo human skin sections; type: cell-based; details: 10^−6 M applied topically, 24 or 48 hours, vs control conditions
Experimental: (§10) The human skin samples are placed in culture at the air/liquid interface. A 10^−6M solution of SEQ ID No. 5 peptide or SEQ ID No. 9 peptide is applied topically, then the samples are incubated for 24 hours or 48 hours. These skin samples are then fixed with formaldehyde, then embedded in paraffin or fixed with OCT by freezing at −20° C. Sections of 3 to 4 μm are then produced (6 μm for cold sections). The immunolabeling of samples embedded in paraffin is performed after unmasking specific sites. The immunolabeling of the samples embedded in OCT is performed after fixation at 37° C. and with cold acetone.
as §9

collagen III [7] = test: Collagen III immunofluorescence labeling in normal human fibroblast cultures; type: cell-based; details: 10^−6 M once per day, 24 or 48 hours, vs control conditions
Experimental: as §7, §8, §9

collagen III [8] = test: Collagen III immunofluorescence labeling in ex vivo human skin sections; type: cell-based; details: 10^−6 M applied topically, 24 or 48 hours, vs control conditions
Experimental: as §10, §9

[9] = system: elastic fibers present in the dermis; test: Elastic fiber staining (Elastika van Gieson) of ex vivo human skin irradiated by UVA; type: cell-based; details: 10^−6 M topically 48 hours before UVA 5 J/cm^2, vs untreated irradiated controls
Experimental: The objective of this study is to determine the influence of the SEQ ID No. 5 peptide on the elastic fibers present in the dermis. To do this, specific staining of the elastic fibers was performed on skin samples cultivated ex vivo.
Human skin samples are placed in culture at the air/liquid interface. A 10^−6 M solution of SEQ ID No. 5 peptide is applied topically, then the samples are incubated for 48 hours before being irradiated by UVA at 5 J/cm^2. Untreated irradiated controls are produced in parallel.
These skin samples are then fixed with formaldehyde, then embedded in paraffin. Sections of 4 μm are then produced. These skin sections are successively removed from the paraffin, then rehydrated in different xylene and alcohol baths. the elastin fibers are stained using an Elastika van Gieson staining kit (VWR, Ref: 1.15974). The stained skin sections are dehydrated then mounted in the Eukitt mounting medium and observed under a microscope.

[10] = system: normal human keratinocytes (NHEK); test: Ibidi in vitro healing model (gap filling), keratinocytes; type: cell-based
Excerpt: (§11) The objective of this study is to determine the regenerating effect of the SEQ ID No. 5 peptide on dermal fibroblasts and normal human keratinocytes (NHEK). To do this, the Ibidi in vitro healing model (Integrated Bio Diagnostics, Munich, Germany) was used.
(§12) This test consists of maintaining a cell-free area at the middle of a cell layer and of evaluating the time taken by the cells arranged on either side of the “scar” to migrate or proliferate and fill the gap. The self-adhesive silicone culture inserts are placed at the base of a well of a culture plate. These inserts have the special feature of being comprised of two distinct chambers separated by an impermeable membrane with a thickness of 500 μm. Each of the two chambers is seeded with cells of the same cell type and cultivated until confluency. The insert is then removed with sterile tweezers, creating an acellular area 400 μm wide between the two cell layers. The cells are then treated with a 10^−6 M or a 3×10^−6M solution of SEQ ID No. 5 peptide added to the culture medium, with renewal of the peptide every 24 hours. Phase-contrast microscopy observations (Olympus CK40 microscope X5 connected to an Olympus E-510 camera) were performed at different times (0, 6, 24, 30 and 48 hours) until the proliferation and migration process results in the filling of the gap.

dermal fibroblasts = test: Ibidi in vitro healing model (gap filling), fibroblasts; type: cell-based, human
Excerpt: as §11, §12

## Asp-Arg-Glu-Trp-Gln-Phe-Tyr-Cys-NH2 (DREWQFYC-NH2) [SEQ ID No. 9]
Dermatopontin [1]
  expression of dermatopontin (immunofluorescence): more intense fluorescence; also recorded: very substantially stimulate the expression of dermatopontin
Dermatopontin [2]
  expression of dermatopontin (immunofluorescence): more intense fluorescence at the dermis

## Arg-Glu-Trp-Gln-Phe-Tyr-Cys(Cys)-(NH2) [SEQ ID No. 5]
Dermatopontin [1]
  expression of dermatopontin (immunofluorescence): more intense fluorescence; also recorded: very substantially stimulate the expression of dermatopontin
Dermatopontin [2]
  expression of dermatopontin (immunofluorescence): more intense fluorescence at the dermis
NHEK; cultures in a TRANSWELL system
  intercellular contacts between keratinocytes (ultrastructure): more cohesive
NHEK; keratinocytes in culture
  organelles / mitochondria in keratinocytes (ultrastructure): enrichment in organelles, and in particular mitochondria; also recorded: increase in the density of mitochondria
fibroblasts; vs control cells
  caveolar bodies, rough endoplasmic reticulum and Golgi apparatus (ultrastructure): substantially more developed
fibroblasts; vs untreated control cells
  secretion / synthesis of components of the extracellular matrix (ultrastructure): more intense secretion of components of the extracellular matrix; also recorded: increase in the synthesis of components of the extracellular matrix
Skins cultivated ex vivo
  cellular contacts between the cells of the basal layer (ultrastructure): narrower cellular contacts between the cells of the basal layer; also recorded: increases the intercellular contacts of the basal keratinocytes
Fibronectin [3]
  expression of fibronectin (immunofluorescence): more intense cytoplasmic fluorescence; also recorded: very substantially stimulates the expression of fibronectin
Fibronectin [4]
  densification of the area supporting the dermoepidermal junction (fibronectin immunofluorescence): stimulates the densification of the area supporting the dermoepidermal junction
Collagen I [5]
  expression of collagen I (immunofluorescence): more intense fluorescence; also recorded: increases the expression of collagen I
Collagen I [6]
  expression of collagen I (immunofluorescence): more intense fluorescence
Collagen III [7]
  expression of collagen III (immunofluorescence): more intense fluorescence; also recorded: increases the expression
Collagen III [8]
  expression of collagen III (immunofluorescence): more intense fluorescence
[9]
  degradation of the elastic fibers after UV irradiation: less degradation of the elastic fibers; also recorded: preserves the elastic fibers
  organization of the elastic fibers after UV irradiation: better preservation of the organization of the elastic fibers
[10]; NHEK cultivated in the presence of the peptide
  gap filling / proliferation and migration by comparison with control conditions: filled the gap faster; also recorded: stimulates the proliferation and migration
[10]; human keratinocytes, 10^−6 M, 400 μm gap, control gap not yet filled at the same time
  time to total filling of the gap: 30 h
[10]; keratinocytes, 3×10^−6 M compared with 10^−6 M
  dose dependence of gap filling: the gap fills faster
Dermal fibroblasts; fibroblasts cultivated in the presence of the peptide
  gap filling / proliferation and migration by comparison with control conditions: filled the gap faster; also recorded: stimulates the proliferation and migration
Dermal fibroblasts; fibroblasts, 3×10^−6 M compared with 10^−6 M
  dose dependence of gap filling: the gap fills faster
Dermal fibroblasts; human fibroblasts, 10^−6 M, 400 μm gap, control gap not yet filled at the same time
  time to total filling of the gap: 48 h
